This experiment addresses T1, human mGluR4 (Homo sapiens, UniProt Q14833).
T1 construct: expressed in transfected cells; host or cells: Chinese Hamster Ovary (CHO) cells
As to the kind of experiment: Potentiation of human mGluR4 in transfected CHO cells, Ca2+-sensitive fluorescent dye, EC20 agonist. It counts as cell-based. Particulars: values in E-notation, unit inferred, read-out: hEC50. As for the experimental part:
The disclosed compounds and compositions can be evaluated for their ability to act as a potentiator of metabotropic glutamate receptor activity, in particular mGluR4 activity, by any suitable known methodology known in the art. For example, Chinese Hamster Ovary (CHO) cells transfected with human mGluR4 or HEK cells co-transfected with rat mGluR4 and the G-protein regulated Inwardly Rectifying Potassium channel (GIRK) were plated in clear bottom assay plates for assay in a Hamamatsu FDSS Fluorometric Plate Reader. The cells were loaded with either a Ca2+-sensitive fluorescent dye or the thallium responsive dye and the plates were washed and placed into a suitable kinetic plate reader. For human mGluR4 assays, a fluorescence baseline was established for 3-5 seconds, the disclosed compounds were then added to the cells, and the response in cells was measured. Approximately two and a half minutes later, a concentration of mGluR4 orthosteric agonist (e.g. glutamate or L-AP4) eliciting approximately 20% (EC20) of the maximal agonist response was added to the cells, and the response was measured. Two minutes later, a concentration of mGluR4 agonist (e.g. glutamate or L-AP4) eliciting 80% (EC80) of the maximal agonist response was added to the cells, and the response was measured. For rat mGluR4/GIRK experiments, a baseline was established for approximately five seconds, disclosed compounds were added, and either an EC20 or EC80 concentration of agonist was added approximately two and one half minutes later.
The above described assay operated in two modes. In the first mode, a range of concentrations of the disclosed compounds are added to cells, followed by a single fixed concentration of agonist. If the compound acts as a potentiatior, an EC50 value for potentiation and a maximum extent of potentiation by the compound at this concentration of agonist is determined by non-linear curve fitting. If the compound acts as a noncompetitive antagonist, an IC50 value is determined by non-linear curve fitting. In the second mode, several fixed concentrations of the disclosed compounds are added to various wells on a plate, followed by a range in concentrations of agonist for each concentration of disclosed compound. The EC50 values for the agonist at each concentration of compound are determined by non-linear curve fitting. A decrease in the EC50 value of the agonist with increasing concentrations of the sample compound (a leftward shift of the agonist concentration-response curve) is an indication of the degree of mGluR4 potentiation at a given concentration of the sample compound. A decrease in the maximal response of the agonist with increasing concentrations of the sample compounds, with or without a rightward shift in agonist potency, is an indication of the degree of noncompetitive antagonism at mGluR4. The second mode also indicates whether the sample compounds also affect the maximum response to mGluR4 to agonists.
T1 sequence (Q14833 33-912): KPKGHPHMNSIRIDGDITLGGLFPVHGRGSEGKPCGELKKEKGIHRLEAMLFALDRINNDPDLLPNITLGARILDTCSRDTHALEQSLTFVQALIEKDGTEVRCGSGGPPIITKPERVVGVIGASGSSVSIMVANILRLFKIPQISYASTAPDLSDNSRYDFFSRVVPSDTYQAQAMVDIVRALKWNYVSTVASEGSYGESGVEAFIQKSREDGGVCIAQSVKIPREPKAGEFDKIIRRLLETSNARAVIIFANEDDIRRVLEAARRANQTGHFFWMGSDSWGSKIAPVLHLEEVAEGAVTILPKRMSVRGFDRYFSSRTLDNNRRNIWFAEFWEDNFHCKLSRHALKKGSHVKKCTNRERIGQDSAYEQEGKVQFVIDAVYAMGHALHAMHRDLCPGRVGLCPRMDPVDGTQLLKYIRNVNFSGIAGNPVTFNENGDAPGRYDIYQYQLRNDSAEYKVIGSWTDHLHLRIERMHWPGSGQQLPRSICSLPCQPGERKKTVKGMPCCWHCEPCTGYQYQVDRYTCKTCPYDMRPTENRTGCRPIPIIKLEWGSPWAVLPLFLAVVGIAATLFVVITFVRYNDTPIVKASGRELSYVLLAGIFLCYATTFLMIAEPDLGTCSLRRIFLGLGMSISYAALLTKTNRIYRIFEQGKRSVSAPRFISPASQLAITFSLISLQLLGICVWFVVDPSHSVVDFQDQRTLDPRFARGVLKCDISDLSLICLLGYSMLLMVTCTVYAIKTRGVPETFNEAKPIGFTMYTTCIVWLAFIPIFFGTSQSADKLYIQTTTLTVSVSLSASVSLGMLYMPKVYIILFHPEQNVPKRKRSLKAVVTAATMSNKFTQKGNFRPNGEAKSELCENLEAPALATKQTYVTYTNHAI
As to `O=S(=O)(Cc1ccccc1Cl)c1cc2nc(-c3ccccn3)[nH]c2cc1Cl` [Example 5, 6-chloro-5-((2-chlorobenzyl)sulfonyl)-2-(pyridin-2-yl)-1H-benzo[d]imidazole], the EC50 came out at 350 nM.

For `O=S(=O)(Cc1ccc(Cl)cc1Cl)c1cc2nc(-c3ccccn3)[nH]c2cc1Cl` [Example 23, 6-chloro-5-((2,4-dichlorobenzyl)sulfonyl)-2-(pyridin-2-yl)-1H-benzo[d]imidazole], the EC50 came out at 1520 nM.

In the case of `O=S(=O)(Cc1c(F)cccc1Cl)c1cc2nc(-c3ccccn3)[nH]c2cc1Cl` [Example 24, 6-chloro-5-((2-chloro-6-fluorobenzyl)sulfonyl)-2-(pyridin-2-yl)-1H-benzo[d]imidazole], the EC50 turned out to be 112 nM.

With `O=S(=O)(Cc1ccc(Cl)cc1F)c1ccc2[nH]c(-c3cccc[n+]3O)nc2c1` [Example 18, 2-(5-((4-chloro-2-fluorobenzyl)sulfonyl)-1H-benzo[d]imidazol-2-yl)-1-hydroxypyridin-1-ium], the EC50 came to 272 nM.

Take `O=C(Nc1ccc(S(=O)(=O)Cc2ccccc2Cl)cc1)c1ncccc1F` [Example 31, N-(4-((2-chlorobenzyl)sulfonyl)phenyl)-3-fluoropicolinamide]: the EC50 amounted to 730 nM.

With `O=C(Nc1ccc(S(=O)(=O)Cc2ccccc2Cl)cc1)c1cccc(Cl)n1` [Example 30, 6-chloro-N-(4-((2-chlorobenzyl)sulfonyl)phenyl)picolinamide], the EC50 is 1100 nM.

Consider `O=S(=O)(Cc1ccccc1Cl)c1ccc2[nH]c(-c3ncccc3F)nc2c1` [Example 16, 5-((2-chlorobenzyl)sulfonyl)-2-(3-fluoropyridin-2-yl)-1H-benzo[d]imidazole], for which the EC50 was determined as 221 nM.

Take `O=S(=O)(Cc1ccccc1Cl)c1ccc2[nH]c(-c3nccs3)nc2c1` [Example 12, 2-(5-((2-chlorobenzyl)sulfonyl)-1H-benzo[d]imidazol-2-yl)thiazole]: the EC50 stood at 1450 nM.

`O=S(=O)(Cc1ccccc1Cl)c1ccc2[nH]c(-c3cccc(F)n3)nc2c1` [Example 15, 5-((2-chlorobenzyl)sulfonyl)-2-(6-fluoropyridin-2-yl)-1H-benzo[d]imidazole]: the EC50 came to 927 nM.

As to `O=S(=O)(Cc1ccccc1Cl)c1ccc2[nH]c(-c3cscn3)nc2c1` [Example 13, 4-(5-((2-chlorobenzyl)sulfonyl)-1H-benzo[d]imidazol-2-yl)thiazole], the EC50 is 1840 nM.

With `Fc1ccccc1CSc1ccc2[nH]c(-c3ccccn3)nc2c1` [Example 3, 5-((2-fluorobenzyl)thio)-2-(pyridin-2-yl)-1H-benzo[d]imidazole], the EC50 was 2450 nM.

Regarding `O=S(=O)(Cc1c(F)cccc1Cl)c1ccc2[nH]c(-c3ccccn3)nc2c1` [Example 22, 5-((2-chloro-6-fluorobenzyl)sulfonyl)-2-(pyridin-2-yl)-1H-benzo[d]imidazole], the EC50 amounted to 55.3 nM.

For the compound `O=S(=O)(Cc1ccccc1Cl)c1cc2nc(-c3ccccn3)[nH]c2cc1F` [Example 25, 5-((2-chlorobenzyl)sulfonyl)-6-fluoro-2-(pyridin-2-yl)-1H-benzo[d]imidazole], the EC50 is 341 nM.

As to `O=C(Nc1ccc(S(=O)(=O)Cc2ccccc2Cl)cc1)c1ccccn1` [Example 27, N-(4-((2-chlorobenzyl)sulfonyl)phenyl)picolinamide], the EC50 turned out to be 237 nM.

In the case of `O=C(Nc1ccc(S(=O)(=O)Cc2ccccc2Cl)cc1)c1ccco1` [Example 28, N-(4-((2-chlorobenzyl)sulfonyl)phenyl)furan-2-carboxamide], the EC50 is 427 nM.

Turning to `Clc1ccccc1CSc1ccc2[nH]c(-c3ccccn3)nc2c1` [Example 1, 5-(2-Chlorobenzylthio)-2-(pyridin-2-yl)-1H-benzo[d]imidazole], the EC50 is 2480 nM.

Turning to `[O-][S+](Cc1ccccc1Cl)c1cc2nc(-c3ccccn3)[nH]c2cc1Cl` (stereo not shown) [Example 17, 6-chloro-5-((2-chlorobenzyl)sulfinyl)-2-(pyridin-2-yl)-1H-benzo[d]imidazole], the EC50 amounted to 2410 nM.

Take `O=S(=O)(Cc1cccc(Cl)c1F)c1ccc2[nH]c(-c3cccc[n+]3O)nc2c1` [Example 20, 2-(5-((3-chloro-2-fluorobenzyl)sulfonyl)-1H-benzo[d]imidazol-2-yl)-1-hydroxypyridin-1-ium]: the EC50 is 1060 nM.

With `O=S(=O)(Cc1ccc(F)cc1F)c1ccc2[nH]c(-c3ccccn3)nc2c1` [Example 8, 5-((2,4-difluorobenzyl)sulfonyl)-2-(pyridin-2-yl)-1H-benzo[d]imidazole], the EC50 was found to be 209 nM.

On to `O=S(=O)(Cc1cc(F)ccc1F)c1ccc2[nH]c(-c3ccccn3)nc2c1` [Example 7, 5-((2,5-difluorobenzyl)sulfonyl)-2-(pyridin-2-yl)-1H-benzo[d]imidazole], for which the EC50 is 434 nM.

Consider `O=S(=O)(Cc1cccc(Cl)c1F)c1ccc2[nH]c(-c3ccccn3)nc2c1` [Example 21, 5-((3-chloro-2-fluorobenzyl)sulfonyl)-2-(pyridin-2-yl)-1H-benzo[d]imidazole], for which the EC50 was found to be 194 nM.

As for `O=S(=O)(Cc1ccc(Cl)cc1F)c1ccc2[nH]c(-c3ccccn3)nc2c1` [Example 19, 5-((4-chloro-2-fluorobenzyl)sulfonyl)-2-(pyridin-2-yl)-1H-benzo[d]imidazole], the EC50 worked out at 82.3 nM.

With `O=S(=O)(Cc1c(F)cccc1F)c1ccc2[nH]c(-c3ccccn3)nc2c1` [Example 9, 5-((2,6-difluorobenzyl)sulfonyl)-2-(pyridin-2-yl)-1H-benzo[d]imidazole], the EC50 was 155 nM.

Take `O=S(=O)(Cc1ccccc1Cl)c1ccc2[nH]c(-c3cccc(Cl)n3)nc2c1` [Example 11, 5-((2-chlorobenzyl)sulfonyl)-2-(6-chloropyridin-2-yl)-1H-benzo[d]imidazole]: the EC50 was determined as 75.4 nM.

Turning to `O=S(=O)(Cc1ccccc1Cl)c1ccc2[nH]c(-c3ncc(F)cc3F)nc2c1` [Example 14, 5-((2-chlorobenzyl)sulfonyl)-2-(3,5-difluoropyridin-2-yl)-1H-benzo[d]imidazole], the EC50 was determined as 450 nM.

In the case of `O=S(=O)(Cc1ccccc1F)c1ccc2[nH]c(-c3ccccn3)nc2c1` [Example 4, 5-((2-fluorobenzyl)sulfonyl)-2-(pyridin-2-yl)-1H-benzo[d]imidazole], the EC50 came to 330 nM.

Consider `O=S(=O)(Cc1ccc(Cl)cc1Cl)c1ccc2[nH]c(-c3ccccn3)nc2c1` [Example 6, 5-((2,4-dichlorobenzyl)sulfonyl)-2-(pyridin-2-yl)-1H-benzo[d]imidazole], for which the EC50 is 56.8 nM.

For `Cc1cccc(C(=O)Nc2ccc(S(=O)(=O)Cc3ccccc3Cl)cc2)n1` [Example 32, N-(4-((2-chlorobenzyl)sulfonyl)phenyl)-6-methylpicolinamide], the EC50 was determined as 5400 nM.

With `O=S(=O)(Cc1cc(F)c(F)cc1F)c1ccc2[nH]c(-c3ccccn3)nc2c1` [Example 10, 2-(pyridin-2-yl)-5-((2,4,5-trifluorobenzyl)sulfonyl)-1H-benzo[d]imidazole], the EC50 amounted to 462 nM.

As to `O=S(=O)(Cc1ccccc1Cl)c1ccc2[nH]c(-c3ccccn3)nc2c1` [Example 2, 5-(2-Chlorobenzylsulfonyl)-2-(pyridin-2-yl)-1H-benzo[d]imidazole], the EC50 worked out at 421 nM.

Take `O=S(=O)(Cc1ccc(Cl)cc1F)c1cc2nc(-c3ccccn3)[nH]c2cc1Cl` [Example 26, 6-chloro-5-((4-chloro-2-fluorobenzyl)sulfonyl)-2-(pyridin-2-yl)-1H-benzo[d]imidazole]: the EC50 worked out at 446 nM.

The record behind these values is patent publication US8912336B2, “Aryl and heteroaryl sulfones as mGluR4 allosteric potentiators, compositions, and methods of treating neurological dysfunction” (Vanderbilt University, priority 2009, dated 2014).
